Results on 43 compounds are retold here after patent US6310095A, “Inhibitors of protein isoprenyl transferases” (University of Pittsburgh, priority 1998, dated 2001).

Where a name gives a salt, the structure may show the parent alone. A value given as a limit tells only on which side of the number the result lay.

The target in one assay is T1, protein farnesyltransferase (Rattus norvegicus, UniProt Q02293+Q04631).
T1 construct: Rat brain protein farnesyltransferase activity is measured; from tissue; host or cells: rat brain; purified according to Reiss et al., Cell 62:81-88 (1990), steps one through three
Description: in vitro inhibition of protein farnesyltransferase (scintillation proximity assay, biotin-K Ras B fragment). The assay is classed as biochemical. To be noted: at 1 × 10^-5 M. The gist of the method: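 Rat brain enzyme, purified through three steps, in a scintillation proximity assay kit with biotin-K Ras B fragment substrate at 0.1 mM final. Value is % inhibition of farnesylation.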
`CSCC[C@H](NC(=O)c1ccc(NC(=O)[C@@H]2C[C@@H](O)CN2)cc1-c1ccccc1)C(=O)O` [Example 952, N-[4-(4-hydroxyprolinylamino)-2-phenylbenzoyl]methionine]: the inhibition at 10 µM was > 50%.

As to `CSCC[C@H](NC(=O)c1ccc(CNc2ccc(C(C)C)cc2)cc1-c1ccccc1)C(=O)O` [Example 692], the inhibition at 10 µM amounted to 74%.

As to `COc1cc(Cl)ccc1C(=O)Nc1ccc(C(=O)N[C@@H](CCSC)C(=O)O)c(-c2ccccc2)c1` [Example 753], the inhibition at 10 µM turned out to be 55%.

`CSCC[C@H](NC(=O)c1ccc(CNc2cc(C(=O)O)cc(C(=O)O)c2)cc1-c1ccccc1)C(=O)O` [Example 710] returned an inhibition at 10 µM of 45%.

The assay is the same for the next values; noted with them: at 1 × 10^-6 M.
As for `CSCC[C@H](NC(=O)c1ccc(COCCCc2ccccc2)cc1-c1ccccc1C)C(=O)[O-].[Li+]` [Example 595], the “% inhibition of farnesyltransferase” value is 97%.

Take `CSCC[C@H](NC(=O)c1ccc(-c2ccc(-c3ccccc3)cc2)cc1-c1ccccc1C)C(=O)[O-].[Li+]` [Example 788]: the “% inhibition of farnesyltransferase” value is 44%.

`Cc1ccccc1-c1cc(CN(C)C(C)(C)CC2CCCCC2)ccc1C(=O)N[C@@H](CCS(C)(=O)=O)C(=O)O` [Example 314]: the “% inhibition of farnesyltransferase” value is 97%.

In the case of `CSCC[C@H](NC(=O)c1ccc(/C=C/c2ccc3ccccc3c2)cc1-c1ccccc1C)C(=O)O` [Example 465], the “% inhibition of farnesyltransferase” value is on record as 92%.

The assay is the same for the next values; noted with them: at 1 × 10^-6 M; read-out: % inhibition of farnesyltransferase.
As for `CSCC[C@H](NC(=O)c1ccc(CN(C(=O)OC(C)(C)C)C(CC2CCCCC2)CC2CCCCC2)cc1-c1ccccc1C)C(=O)O` [Example 886, N-[4-N-t-Butyloxycarbonyl-N-(1,3-dicyclohexylpropan-2-yl)aminomethyl-2-(2-methylphenyl)-benzoyl]methionine lithium salt], the inhibition at 1 µM came out at 35%.

For the compound `CSCC[C@H](NC(=O)c1ccc(CNCCC2CCCCC2)cc1-c1ccccc1C)C(=O)O` [Example 607, N-[4-(N-2-cyclohexylethylaminomethyl)-2-(2-methylphenyl)benzoyl]methionine Trifluoroacetate Salt], the inhibition at 1 µM was found to be 96%.

On to `CSCC[C@H](NC(=O)c1ccc(CNc2ccccc2CCO)cc1-c1ccccc1)C(=O)O` [Example 671], for which the inhibition at 1 µM worked out at 36%.

Regarding `CCc1nnc(NCc2ccc(C(=O)N[C@@H](CCSC)C(=O)O)c(-c3ccccc3C)c2)s1` [Example 723], the inhibition at 1 µM is 87%.

For `CSCC[C@H](NC(=O)c1ccc(CNCCN2CCCC2)cc1-c1ccccc1)C(=O)O` [Example 641], the inhibition at 1 µM came out at 34%.

`CSCC[C@H](NC(=O)c1ccc(NC(=O)[C@@H](N)COCc2ccccc2)cc1-c1ccccc1)C(=O)O` [Example 503, N-[4-(N-2-amino-3-benzyloxypropionyl)amino-2-phenylbenzoyl]methionine]: the inhibition at 1 µM was determined as 57%.

Regarding `CCSC[C@H](CC1CCCCC1)NCc1ccc(C(=O)N[C@@H](CCSC)C(=O)O)c(-c2ccccc2C)c1` [Example 403, [4-(1-ethylthio-3-cyclohexylprop-2-ylaminomethyl)-2-(2-methylphenyl)benzoyl]methionine], the inhibition at 1 µM amounted to 99%.

As to `CSCCC(NC(=O)c1ccc(NC(=O)c2cncnc2)cc1-c1ccccc1)C(=O)O` (stereo not shown) [Example 219, [4-(5-pyrimidylcarboxyamino)-2-phenylbenzoyl]methionine], the inhibition at 1 µM came out at 56%.

As for `CSCC[C@H](NC(=O)c1ccc(CN(CC(C)C)C(CC2CCCCC2)CC2CCCCC2)cc1-c1ccccc1C)C(=O)O` [Example 908], the inhibition at 1 µM worked out at 88%.

As to `CSCC[C@H](NC(=O)c1ccc(CN[C@H](/C=C\CC(C)C)CC2CCCCC2)cc1-c1ccccc1)C(=O)O` [Example 666], the inhibition at 1 µM was determined as 82%.

The assay is the same for the next values; noted with them: at 1 × 10^-7 M.
Take `CSCC[C@H](NC(=O)c1ccc(CCc2ccc(Oc3cccc(Cl)c3)cc2)cc1-c1ccccc1C)C(=O)O` [Example 859]: the “% inhibition of farnesyltransferase” value came to 86%.

With `CSCC[C@H](NC(=O)c1ccc(COC2CCC(NC(=O)OC(C)(C)C)CC2)cc1-c1ccccc1C)C(=O)[O-].[Li+]` (stereo partly shown) [Example 817], the “% inhibition of farnesyltransferase” value amounted to 60%.

Turning to `CSCC[C@H](NC(=O)c1ccc(COCCC2CCCCC2)cc1-c1ccccc1C)C(=O)[O-].[Li+]` [Example 594], the “% inhibition of farnesyltransferase” value was found to be 95%.

As for `CSCC[C@H](NC(=O)c1ccc(COCc2ccc(-c3ccc(C(F)(F)F)cc3)o2)cc1-c1ccccc1C)C(=O)[O-].[Li+]` [Example 445], the “% inhibition of farnesyltransferase” value worked out at 94%.

For `CSCC[C@H](NC(=O)c1ccc(COCc2ccc(-c3ccc(Cl)cc3)o2)cc1-c1ccccc1C)C(=O)O` [Example 443], the “% inhibition of farnesyltransferase” value came to 97%.

On to `CSCC[C@H](NC(=O)c1ccc(CSc2ccc3ccccc3c2)cc1-c1ccccc1C)C(=O)O` [Example 551], for which the “% inhibition of farnesyltransferase” value amounted to 93%.

As to `CSCC[C@H](NC(=O)c1ccc(COCCc2ccc(Cl)cc2)cc1-c1ccccc1C)C(=O)[O-].[Li+]` [Example 590], the “% inhibition of farnesyltransferase” value is listed as 95%.

Consider `CSCC[C@H](NC(=O)c1ccc(CSc2nc3ccccc3[nH]2)cc1-c1ccccc1C)C(=O)O` [Example 732], for which the “% inhibition of farnesyltransferase” value worked out at 84%.

Staying with this assay, now noted: at 1 × 10^-7 M; read-out: % inhibition of farnesyltransferase.
For `COc1ccccc1N(Cc1ccccc1)Cc1ccc(C(=O)N[C@@H](CCSC)C(=O)O)c(-c2ccccc2C)c1` [Example 839, N-[4-(N-benzyl-N-(2-methoxyphenyl)aniinomethyl)-2-(2-methylphenyl)benzoyl]methionine lithium salt], the inhibition at 0.1 µM worked out at 63%.

As to `CSCC[C@H](NC(=O)c1ccc(CN[C@H](/C=C\CC(C)C)CC2CCCCC2)cc1-c1ccccc1C)C(=O)O` [Example 526, N-[4-N-(1-Cyclohexyl-6-methylhept-3-en-2-yl)aminomethyl-2-(2-methylphenyl)benzoyl]methionine lithium salt], the inhibition at 0.1 µM was found to be 96%.

Consider `CSCC[C@H](NC(=O)c1ccc(CN(CCC2CCCCC2)S(C)(=O)=O)cc1-c1ccccc1C)C(=O)O` [Example 611, N-[4-(N-(2-cyclohexylethyl)-N-methanesulfonylaminomethyl)-2-(2-methylphenyl)benzol]methionine Lithium Salt], for which the inhibition at 0.1 µM was 95%.

The assay is the same for the next values; noted with them: at 1 × 10^-8 M.
Take `CSCC[C@H](NC(=O)c1ccc(COCc2cnc(-c3ccccc3Cl)s2)cc1-c1ccccc1C)C(=O)[O-].[Li+]` [Example 897]: the “% inhibition of farnesyltransferase” value is 76%.

Take `CSCC[C@H](NC(=O)c1ccc(COCc2ccc(-c3ccc(N(C)C)cc3)o2)cc1-c1ccccc1C)C(=O)O` [Example 821]: the “% inhibition of farnesyltransferase” value is reported as 75%.

With `CSCC[C@H](NC(=O)c1ccc(COCc2cnc(-c3cccc(Cl)c3)s2)cc1-c1ccccc1C)C(=O)[O-].[Li+]` [Example 899], the “% inhibition of farnesyltransferase” value was determined as 88%.

Regarding `CSCC[C@H](NC(=O)c1ccc(COCc2ccc(-c3ccc(C(C)C)cc3)o2)cc1-c1ccccc1C)C(=O)[O-].[Li+]` [Example 820], the “% inhibition of farnesyltransferase” value amounted to 66%.

As to `CSCC[C@H](NC(=O)c1ccc(COCCCC23CC4CC(CC(C4)C2)C3)cc1-c1ccccc1C)C(=O)[O-].[Li+]` [Example 599], the “% inhibition of farnesyltransferase” value was 86%.

The same assay, now with this note: at 1 × 10^-8 M; read-out: % inhibition of farnesyltransferase.
As for `CSCC[C@H](NC(=O)c1ccc(CN[C@@H](CC2CCCCC2)C(=O)N2CCCCC2)cc1-c1ccccc1C)C(=O)O` [Example 887, N-[4-N-(3-Cyclohexyl-1-oxo-1-piperidin-1-ylpropan-2-yl)aminomethyl-2-(2-methylphenyl)benzoyl]-methionine lithium salt], the inhibition at 0.01 µM was found to be 92%.

On to `CCSC[C@H](CCc1ccccc1)NCc1ccc(C(=O)N[C@@H](CCSC)C(=O)O)c(-c2ccccc2C)c1` [Example 995], for which the inhibition at 0.01 µM stood at 92%.

Regarding `CCCCS(=O)(=O)N(CCCc1ccccc1)Cc1ccc(C(=O)N[C@@H](CCSC)C(=O)O)c(-c2ccccc2C)c1` [Example 927, N-[4-(N-Butanesulfonyl-N-(3-phenylpropyl)aminomethyl)-2-(2-methylphenyl)benzoyl]methionine], the inhibition at 0.01 µM came out at 74%.

`CSCC[C@H](NC(=O)c1ccc(CN(Cc2ccccc2)c2cncnc2)cc1-c1ccccc1C)C(=O)O` [Example 836, N-[4-N-benzyl-N-pyrimidin-5-ylaminomethyl-2-(2-methylphenyl)benzoyl]methionine lithium salt]: the inhibition at 0.01 µM was 95%.

As for `CSCC[C@H](NC(=O)c1ccc(NC[C@H]2NCC[C@H]2S)cc1-c1ccccc1)C(=O)O` [Example 960, N-[4-((2S,4R)-4-thiolpyrrolidin-2-ylmethylamino)-2-phenylbenzoyl]methionine], the inhibition at 0.01 µM is > 50%.

As for `CSCC[C@H](NC(=O)c1ccc(CN(CCC2CCCCC2)C(=O)OC(C)(C)C)cc1-c1ccccc1C)C(=O)O` [Example 763, N-[4-N-t-Butyloxycarbonyl-N-2-cyclohexylethylaminomethyl-2-(2-methylphenyl)benzoyl]methionine lithium salt], the inhibition at 0.01 µM was found to be 92%.

Consider `CCSC[C@H](CC1CCCCC1)N(C)Cc1ccc(C(=O)N[C@@H](CCSC)C(=O)O)c(-c2ccccc2C)c1` [Example 944, N-[4-N-(3-Cyclohexyl-1-ethylthiopropan-2-yl)-N-methylaminomethyl-2-(2-methylphenyl)benzoyl]-methionine hydrochloride salt], for which the inhibition at 0.01 µM is 88%.

Still in this assay, the particulars now being: read-out: % inhibition of farnesyltransferase.
Regarding `CSCC[C@H](NC(=O)c1ccc(CN(Cc2ccccc2)c2ccccc2SC)cc1-c1ccccc1C)C(=O)O` [Example 850, N-[4-(N-benzyl-N-(2-methylthiophenyl)aminomethyl)-2-(2-methylphenyl)benzoyl]methionine lithium salt], the inhibition at 1 µM was determined as 90%.

As to `CSCC[C@H](NC(=O)c1ccc(NC(=O)C2=C(C(F)(F)F)C=CNC2)cc1-c1ccccc1)C(=O)O` [Example 283, [4-(1H-4-trifluoromethyl-1,2-dihydropyrid-3-ylcarbonylamino)-2-phenylbenzoyl]methionine sodium salt], the inhibition at 1 µM came to 98%.
